Key:
p53 in U87MG cells = test: U87MG p53-elisa as described in EP1809622; format: cell-based; conditions: lowest dose giving at least 140% of the p53 value of the control
p53 in A2780 cells = test: p53 ELISA in A2780 cells (capacity to preserve p53); format: cell-based; conditions: lowest dose giving at least 140% of the p53 value of the control, 16 hours
Method: The capacity of the compounds to preserve p53 in A2780 cells was measured with the p53 enzyme linked immunosorbent assay. The p53 assay is a “sandwich” enzyme immunoassay employing two polyclonal antibodies. A polyclonal antibody, specific for the p53 protein, has been immobilized onto the surface of the plastic wells. Any p53 present in the sample to be assayed will bind to the capture antibody. The biotinylated detector polyclonal antibody also recognizes p53 protein, and will bind to any p53, which has been retained by the capture antibody. The detector antibody, in turn, is bond by horseradish peroxidase-conjugated streptavidin. The horseradish peroxidase catalyses the conversion of the chromogenic substrate o-phenylene diamine, the intensity of which is proportional to the amount of p53 protein bond to the plate. The colored reaction product is quantified using a spectrophotometer. Quantitation is achieved by the construction of a standard curve using known concentrations of purified recombinant HIS tagged p53 protein (see example C.1.).
A2780 cells (ATCC) were cultivated in RPMI 1640 supplemented with 10% fetal calf serum (FCS), 2 mM L-glutamine and gentamycin at 37° C. in a humidified incubator with 5% CO2.
A2780 cells were seeded at 20.000 cells per well in a 96 well plate, cultured for 24 hours and treated with compound for 16 hours at 37° C. in a humidified incubator. After incubation, the cells were washed once with phosphate-buffered saline and 30 μl, per well, low salt RIPA buffer (20 mM tris, pH7.0, 0.5 mM EDTA, 1% Nonidet P40, 0.5% DOC, 0.05% SDS, 1 mM PMSF, 1 μg/ml aprotinin and 0.5 μ/ml leupeptin) was added. Plates were placed on ice for 30 minutes to complete the lysis. p53 protein was detected in de lysates by using the sandwich ELISA, described below.
High binding polystyrene EIA/RIA 96 well plates (Costar 9018) were coated with the capture antibody pAb1801 (Abcam ab28-100) at a concentration of 1 μg/ml in coating buffer (0.1 M NaHCO3 pH8.2), 50 μl per well. The antibody was allowed to adhere overnight at 4° C. Coated plates were washed once with phosphate-buffered saline (PBS)/0.05% Tween 20 and 300 μl of blocking buffer (PBS, 1% bovine serum albumins (BSA)) was added, for an incubation period of 2 hours at room temperature. Dilutions of purified recombinant HIS tagged p53 protein, ranging from 3-200 ng/ml, were made in blocking buffer and used as standards.
Plates were washed twice with PBS/0.05% Tween 20 and blocking buffer or standards were added at 80 μl/well. To the standards, 20 μl of lysis buffer was added. The samples were added to the other wells at 20 μl lysate/well. After an overnight incubation at 4° C., plates were washed twice with PBS/0.05% Tween 20. Aliquots of 100 μl secondary polyclonal antibody p53(FL-393) (Tebubio, sc-6243) at a concentration of 1 μg/ml in blocking buffer were added to each well and allowed to adhere for 2 hours at room temperature. Plates were washed three times with PBS/0.05% Tween 20. Detection antibody anti-rabbit HRP (sc-2004, Tebubio) at 0.04 μg/ml in PBS/1% BSA was added and incubated for 1 hour at room temperature. Plates were washed three times with PBS/0.05% Tween 20 and 100 μl of substrate buffer was added (substrate buffer was prepared shortly before use by adding 1 tablet of 10 mg o-phenylene diamine (OPD) from Sigma and 125 μl 3% H2O2 to 25 ml OPD buffer: 35 mM citric acid, 66 mM Na2HPO4, pH5.6). After 5 to 10 minutes, colour reaction was stopped by adding 50 μl stop buffer (1 M H2SO4) per well. The absorbance at dual wavelengths of 490/655 nm was measured using a Biorad micro plate reader and the results were then analyzed.
For each experiment, controls (containing no drug) and a blank incubation (containing no cells or drugs) were run in parallel. The blank value was subtracted from all control and sample values. For each sample, the value of p53 (in absorbance units) was expressed as the percentage of the value for p53 present in the control. […]

Male NMRI mice = test: Ro-4-1284 antagonism in mice (drug induced neurological effects); format: in vivo; conditions: Ro-4-1284 antagonism in mice
Method: The test is a modification of a procedure described by Colpaert et al. (1975).^3 Male NMRI mice (22±3 g) were housed in macrolon observation cages (L×W×H: 11×12×17 cm; n=3 per cage). At the start of the experiments immediately before test compound administration, the initial body temperature of the mice was measured with a precision of 0.1° C. by inserting the thermo-sensitive probe (1.0 mm diameter) of an electric thermometer (Comark) to a constant depth of 3 cm into the esophagus until a stable reading was obtained. The right eye pupil diameter was measured with a graduated microscope and expressed in 1/24 mm units. Fifteen min after test compound administration, the mice were challenged with Ro-4-1284 (10 mg/kg, s.c.). Ro-4-1284 is a reserpine-like vesicular monoamine transport (VMAT-2) inhibitor, which rapidly depletes secretory vesicles.^3,4 Fifteen, 30 and 60 min after challenge, the mice were scored for palpebral opening (0, 1, 2, 3, 4, 5) and locomotor activity (−1, 0, 1, 2, 3). At the 60-min interval, immediately after the scoring of overt behavior, the right eye pupil diameter and the esophageal temperature were measured again. Abnormal phenomena such as intensive sniffing, chewing, rearing, hyperemia, piloerection, salivation, tremors, convulsions and death were noted (the latter phenomena were also noted when occurring before Ro-4-1284 administration). Criteria for drug-induced effects: reversal of ptosis: palpebral opening score >1 at 15, 30 or 60 min (2.7, 0.5 and 0% false positive controls, respectively; n>350); induction of prostration: score −1 for locomotion at 15, 30 or 60 min (never observed in controls); reversal of hypomotility: score >0 for locomotion at 15, 30 and 60 min (2.2, 0.8 and 0% false positive controls, respectively); reversal of miosis: pupil diameter >5 units at 60 min (0.8% false positives); potentiation of hypothermia: temperature decrease (over the 1-h time interval)>9.0° C. (1.4% false positives); reversal of hypothermia: temperature decrease <3.0° C. (1.8% false positives).
According to the standard procedure, R0-4-1284 is injected 15 min following subcutaneous or oral administration and observations start 15 min later. Doses are initially given to 3 animals. When at least 2 out of the 3 animals show activity for at least one of the observations, the compound is considered active.

[1] = Physical properties of the solid state forms; format: physicochemical
Method: Form I was denoted as a crystalline, non-hygroscopic solid that melts at approximately 192° C. Form II was described as a crystalline solid with a melting point at approximately 186° C.

[2] = Chemical stability of Form I (HPLC and visual inspection after storage); format: physicochemical
Method: The chemical stability of Form I of compound No. 1 was studied according to the following procedure:
Form I was stored in different open conditions for periods of 1, 4 and 8 weeks. These conditions are 40° C./75% RH, 50° C., RT/<5% RH, RT/56% RH, RT/75% RH and 0.3 da ICH light.
The compounds were analyzed after storage by HPLC and by visual inspection.

[3] = Slurry conversion experiment; format: physicochemical; conditions: various solvents, 50° C., 24 hours
Method: Concentrated/saturated solutions of compound No. 1 drug substance were prepared at 50° C. in 13 different solvents (water, methanol, ethanol, 2-propanol, acetone, acetonitrile, toluene, tetrahydrofuran, dichloromethane, 2-butanone, ethyl acetate, dimethylformamide, 1-methoxy-2-propanol) to support the automated polymorph screen. […] The slurry solids were retrieved from their solvent systems, dried under an air stream, placed under vacuum at room temperature overnight, and then analyzed for slurry conversion using XRD.

[4] = Crystallographic stability of Form I (TGA, DSC, XRPD, IR after storage); format: physicochemical; parameters: key to XRD / IR: ~Ref: identical with reference; Cryst.: crystalline
Method: The crystallographic stability of Form I of compound No. 1 was studied according to the following procedure:
after storage of the compound in open conditions for a period of six weeks at room temperature (RT) under <5%, 56% and 75% relative humidity (RH), 50° C. and 40° C./75% RH., the samples were analyzed with thermogravimetry (TGA), differential scanning calorimetry (DSC), X-ray powder diffraction (XRPD) and infrared spectroscopy (IR).

## Cc1cc(Nc2ccncc2)ccc1NCCc1c[nH]c2ccccc12
p53 in U87MG cells
  U87MG p53-elisa LAD: 1.00E-05
p53 in A2780 cells
  A2780 p53-elisa LAD: 3.00E-06
Male NMRI mice
  drug induced neurological side effects: yes

## c1ccc2c(CCNc3ccc(Nc4ccncc4)cc3)c[nH]c2c1
p53 in U87MG cells
  U87MG p53-elisa LAD: 3.00E-06
p53 in A2780 cells
  A2780 p53-elisa LAD: 1.00E-06
Male NMRI mice
  drug induced neurological side effects: yes

## Cc1cccc2c(CCNc3ccc(Nc4ccncc4)cc3)c[nH]c12
p53 in U87MG cells
  U87MG p53-elisa LAD: 1.00E-06
p53 in A2780 cells
  A2780 p53-elisa LAD: 3.00E-07
Male NMRI mice
  drug induced neurological side effects: yes

## Cc1cc(Nc2ccnc3c2CCC3O)ccc1NCCc1c[nH]c2c(C)cccc12 (stereo not drawn) [Form I]
[1]
  hygroscopicity: non-hygroscopic
[2]; 0.3da ICH light (1 week)
  Appearance: brown-grey
  HPLC Sum of impurities: 0.18%
[2]; 40° C./75% RH, 1 week
  Appearance: brown-grey
  HPLC Sum of impurities: 0.13%
[2]; 40° C./75% RH, 4 weeks
  Appearance: brown-grey
  HPLC Sum of impurities: 0.14%
[2]; 40° C./75% RH, 8 weeks
  Appearance: brown-grey
  HPLC Sum of impurities: 0.2%
[2]; 50° C., 1 week
  Appearance: brown-grey
  HPLC Sum of impurities: 0.28%
[2]; 50° C., 4 weeks
  Appearance: brown-grey
  HPLC Sum of impurities: 0.14%
[2]; 50° C., 8 weeks
  Appearance: brown-grey
  HPLC Sum of impurities: 0.24%
[2]; RT/56% RH, 4 weeks
  Appearance: brown-grey
  HPLC Sum of impurities: 0.22%
[2]; RT/56% RH, 8 weeks
  Appearance: brown-grey
  HPLC Sum of impurities: 0.24%
[2]; RT/75% RH, 4 weeks
  Appearance: brown-grey
  HPLC Sum of impurities: 0.2%
[2]; RT/75% RH, 8 weeks
  Appearance: brown-grey
  HPLC Sum of impurities: 0.18%
[2]; RT/<5% RH, 4 weeks
  Appearance: brown-grey
  HPLC Sum of impurities: 0.19%
[2]; RT/<5% RH, 8 weeks
  Appearance: brown-grey
  HPLC Sum of impurities: 0.24%
[2]; Reference (1 week)
  Appearance: brown-grey
  HPLC Sum of impurities: 0.23%
[2]; open storage 1, 4 and 8 weeks, all investigated conditions
  chemical stability: chemically stable in all investigated conditions
[3]
  form conversion when slurried: No form conversion was observed
[4]; 0 days
  App: brown-grey
  DSC Max: 192.1 °C
  DSC ΔH: 122 J/g
  IR: Cryst., Ref
  TGA <175° C.: 0.05%
  TGA <225° C.: 0.19%
  XRD: Cryst., Ref
[4]; open storage six weeks, all conditions
  crystallographic stability: crystallographically stable
[4]; six weeks open, 40° C./75% RH
  App: brown-grey
  DSC Max: 191.7 °C
  DSC ΔH: 123 J/g
  IR: ~Ref
  TGA <175° C.: 0.06%
  TGA <225° C.: 0.19%
  XRD: ~Ref
[4]; six weeks open, 50° C.
  App: brown-grey
  DSC Max: 191.6 °C
  DSC ΔH: 122 J/g
  IR: ~Ref
  TGA <175° C.: 0%
  TGA <225° C.: 0.2%
  XRD: ~Ref
[4]; six weeks open, RT/56% RH
  App: brown-grey
  DSC Max: 191.8 °C
  DSC ΔH: 108 J/g
  IR: ~Ref
  TGA <175° C.: 0.15%
  TGA <225° C.: 0.2%
  XRD: ~Ref
[4]; six weeks open, RT/75 % RH
  App: brown-grey
  DSC Max: 191.7 °C
  DSC ΔH: 112 J/g
  IR: ~Ref
  TGA <175° C.: 0.14%
  TGA <225° C.: 0.25%
  XRD: ~Ref
[4]; six weeks open, RT/<5% RH
  App: brown-grey
  DSC Max: 191.7 °C
  DSC ΔH: 125 J/g
  IR: ~Ref
  TGA <175° C.: 0%
  TGA <225° C.: 0.31%
  XRD: ~Ref

## Cc1cc(Nc2ccnc3c2CCC3O)ccc1NCCc1c[nH]c2c(C)cccc12 (stereo not drawn) [compound 3]
p53 in A2780 cells
  A2780 p53-elisa LAD: 1.00E-07

## OC1CCc2c(Nc3ccc(NCCc4c[nH]c5ccccc45)cc3)ccnc21 (stereo not drawn) [drawing 33]
p53 in U87MG cells
  U87MG p53-elisa LAD: 1.00E-06
p53 in A2780 cells
  A2780 p53-elisa LAD: 1.00E-07
Male NMRI mice
  drug induced neurological side effects: yes

## OC1CCc2c(Nc3ccc(NCCc4c[nH]c5ccccc45)cc3)ccnc21 (stereo not drawn) [drawing 34]
p53 in U87MG cells
  U87MG p53-elisa LAD: 1.00E-07
p53 in A2780 cells
  A2780 p53-elisa LAD: 3.00E-07
Male NMRI mice
  drug induced neurological side effects: yes
